# Laboratory results reported in patent publication US8303907B2, “Biosensors, and method and kits for using same” (priority 2002, dated 2012).
# Test system: stabilised thylakoid membranes
# Test: Inhibition of photosynthetic efficiency of stabilised thylakoid membranes measured by fluorescence (F2-F1)/F2
# Type: biochemical, spinach
# From the text: In a specific embodiment, a fluorometer continuously illuminates weakly the photosynthetic biological material with a light emitting diode (LED) emitting light at a wavelength of 475 or at 660 nm. Better results were obtained with the 475 nm wavelength. In order to obtain a higher sensitivity for measuring the photosynthetic response to toxic molecules, the intensity of the low excitation light was adjusted so as to obtain a F1 fluorescence level slightly higher than F0.
# Fluorescence measured 2 sec after turning on one LED is F1. Three additional LEDs are then turned on so as to induce actinic illumination F2. Dispersion of LEDs is illustrated in FIG. 1. Light beams are oriented so as to form together a point of convergence precisely at the level where the photodiode is read. After a specific time, selected according to the nature of the thylakoid membranes used (eg. source of thylakoids, etc.) (Table 1), of the background noise and of the level of sensitivity sought, the F2 fluorescence is measured. To determine F1 and F2, the fluorometer measures wavelengths higher than 650 nm when the illumination is at 475 nm, and higher than 700 nm when illumination is at 660 nm.
# The photosynthetic efficiency is determined with the following formula (F2−F1)/F2. Preferably, the photosynthetic efficiency of the stabilised thylakoids is 0.8±0.1. Any molecule affecting the photosystems modifies either F1 or F2 which modification necessarily disrupts (increases or decreases) the photosynthetic efficiency. The inhibition curve of a particular molecule is determined by calculating the activity of the photosystems in the absence of the molecule and in the presence of the molecule and comparing both efficiency as follows as described in Conrad 1993:
# Without inhibitor (wi): efficiency(wi)=(F2(wi)−F1(wi))/F2(wi) With inhibitor: Relative photosynthetic efficiency(sample)=(F2(sample)−F1(sample))/F2(wi) Percentage efficiency: efficiency (%)=(efficiency(sample)×100)/efficiency(wi) Percentage inhibition: Inhibition (%)=100−efficiency (%)
# The individual test tubes (100 μL lyophilised thylakoid membranes) were resuspended in 2 mL of water or tested samples. The concentrated batch of test tubes was resuspended in water, in Buffer 1 (HEPES-NaOH 50 mM pH 7.5 buffer containing sucrose 330 mM, MgCl2 20 mM, NH4Cl 10 mM, PEG 4000 4% (p/v)); or in Buffer 2 (phosphate buffer 0.1 M pH 6.5 containing sucrose 330 mM, NH4Cl 10 mM, MgCl2 20 mM, EDTA 10 mM, PEG 4000 4% (p/v)). A combination of buffered solutions 1 and 2 may also be used. […] These different buffers rs produce different results in the detection sensitivity (see Table 3 above). The final volume obtained depends on the quantity of lyophilised membranes used (2.5 mL for 25 tests, 5 mL for 50 tests).
# Before use, the tubes containing stabilised thylakoid membranes were retrieved from storage. If they were stored in the freezer or the refrigerator, they were tempered 30 minutes at room temperature and in the dark. Two milliliters of fluid samples and the required volume of MgCl2 mother solution to get 0-10 mM MgCl2 (depending on tested samples) were added to 100 μL of the thylakoids membranes formulation at a concentration of 5 μg/mL. The tubes are then shook by inversion for 2 min. […]
# [1] = Buffer 1 + 5 mM MgCl2 (in cuvette)
# [2] = membranes resuspended in Buffer 1
# [3] = membranes resuspended in Buffer 2
compound,measurement,setting,value
[Cl-].[Na+] [NaCl],Effect (inhibition or stimulation) on thylakoid membranes,,Stimulation
[Ni+2] [Ni],IC50,incubation time 15 min,>100 µg/mL
same,Threshold limit value,incubation time 15 min,35 mg/L
same,IC50,incubation time 30 min,>100 µg/mL
same,Threshold limit value,incubation time 30 min,7.1 mg/L
same,IC50,incubation time 60 min,>100 µg/mL
same,Threshold limit value,incubation time 60 min,7.1 mg/L
CCCCCCCC/C=C\CCCCCCCC(=O)O [Oleic acid],Effect (inhibition or stimulation) on thylakoid membranes,,Inhibition
CCC(=O)Nc1ccc(Cl)c(Cl)c1 [Propanil],IC50,[1],0.068 µg/mL
same,Threshold,[1],0.0006 mg/L
same,IC50,[2],0.179 µg/mL
same,Threshold,[2],0.002 mg/L
same,IC50,[3],0.221 µg/mL
same,Threshold,[3],0.013 mg/L
CCNc1nc(Cl)nc(NCC)n1 [Simazine],IC50,[1],0.942 µg/mL
same,Threshold,[1],0.06 mg/L
same,IC50,[2],0.028 µg/mL
same,Threshold,[2],0.002 mg/L
CCCCCCCCCCCCCCCCCC(=O)O [Stearic acid],Effect (inhibition or stimulation) on thylakoid membranes,,Stimulation
[Zn+2] [Zn],IC50,incubation time 15 min,>100 µg/mL
same,Threshold limit value,incubation time 15 min,16 mg/L
same,IC50,incubation time 30 min,70 µg/mL
same,Threshold limit value,incubation time 30 min,16 mg/L
same,IC50,incubation time 60 min,34 µg/mL
same,Threshold limit value,incubation time 60 min,7.1 mg/L
Ammoniacal nitrogen,Effect (inhibition or stimulation) on thylakoid membranes,,Stimulation
Nitrates,Effect (inhibition or stimulation) on thylakoid membranes,,Weak inhibition
Phosphates,Effect (inhibition or stimulation) on thylakoid membranes,,Stimulation
